# Earlier results as cited in patent publication US20060233725A1, “Non-Endocrine Disrupting Cytoprotective UV Radiation Resistant Substance” (priority 2001, published 2006).
# Tested on: cancer cells
# Conditions: recent studies on endocrine disrupting agents in sunscreen formulations
row,SMILES,effect on growth of cancer cells
1,CC1CC(OC(=O)c2ccccc2O)CC(C)(C)C1 (centres unmarked) [homosalate],made cancer cells grow more rapidly
2,COc1ccc(C(=O)c2ccccc2)c(O)c1 [benzophenone-s],made cancer cells grow more rapidly
3,Cc1ccc(C=C2C(=O)C3(C)CCC2C3(C)C)cc1 (centres unmarked) [4-methylbenzylidene camphor],made cancer cells grow more rapidly
4,CCCCC(CC)COC(=O)c1ccc(N(C)C)cc1 (centres unmarked) [octyl-dimethyl-PABA],made cancer cells grow more rapidly
5,CCCCC(CC)COC(=O)C=Cc1ccc(OC)cc1 (centres unmarked) [octyl methoxycinnamate],made cancer cells grow more rapidly
